The experiment deals with mushroom tyrosinase. The experiment is described as follows: mushroom tyrosinase (Sigma) enzyme inhibition assay. The class given is biochemical.

What is called IC50 is the point on the concentration scale where inhibition reaches its midpoint. A lower IC50 goes with higher potency.

For the compound `CC(=O)c1ccc(N2C(=S)NC(C)(C)C=C2C)cc1` [compound 4, 1-(4-(4,4,6-trimethyl-2-thioxo-3,4-dihydropyrimidin-1(2H)-yl)phenyl)ethan-1-one], the IC50 came out at 1.98 µM.

(Values after article PMC9658835, “Acetophenone-Based 3,4-Dihydropyrimidine-2(1H)-Thione as Potential Inhibitor of Tyrosinase and Ribonucleotide Reductase: Facile Synthesis, Crystal Structure, In-Vitro and In-Silico Investigations” (International Journal of Molecular Sciences, 2022).)
